Experimental data: patent US8557741B2, “3-aminocarbonyl-substituted benzoylcyclohexanediones and their use as herbicides” (Bayer CropScience AG, priority 2010, dated 2013)
Like-named read-outs stand apart in the source and are kept apart here.

Legend:
Type in all cases: in vivo
Abutilon theophrasti [1] = test: Pre-emergence herbicidal action against harmful plants; details: Abutilon theophrasti, 504 h, dosage 320 g/ha, visual assessment after 3 weeks (Table A), read-out: Herbicidal action against ABUTH
From the text: (§1) The abbreviations used in the tables below denote: • ABUTH Abutilon theophrasti • AMARE Amaranthus retroflexus • ECHCG Echinochloa crus galli • PHBPU Phartoitis purpureum • STEME Stellaria media • ALOMY Alopecurus myosuroides • AVEFA Avena fatua • MATIN Matricaria inodora • POLCO Fallopia convolvulus • VERPE Veronica persica 1. Pre-emergence Herbicidal Action Against Harmful Plants Seeds of monocotyledonous and dicotyledonous weed plants and crop plants are placed in wood-fibre pots in sandy loam and covered with soil. The compounds according to the invention and the compounds known from the prior art, formulated in the form of wettable powders (WP) or as emulsion concentrates (EC), are then applied as aqueous suspension or emulsion at a water application rate of 600 to 800 I/ha (converted) with the addition of 0.2% of wetting agent to the surface of the covering soil. After the treatment, the pots are placed in a greenhouse and kept under good growth conditions for the test plants. The visual assessment of the damage to the test plants is carried out after a trial period of 3 weeks by comparison with untreated controls (herbicidal activity in percent (%): 100% activity=the plants have died, 0% activity=like control plants, —=not tested). The results of comparative table A show the compounds according to the invention have a higher herbicidal activity than the compounds of the greatest structural similarity known from the closest prior art.

Amaranthus retroflexus [2] = test: as above; details: 504 h, dosage 320 g/ha, visual assessment after 3 weeks (Table A), read-out: Herbicidal action against AMARE
From the text: as §1

Echinochloa crus galli [3] = test: as above; details: Echinochloa, 504 h, dosage 320 g/ha, visual assessment after 3 weeks (Table A), read-out: Herbicidal action against ECHCG
From the text: as §1

Matricaria inodora [4] = test: as above; details: Tripleurospermum inodorum, 504 h, dosage 320 g/ha, visual assessment after 3 weeks (Table A), read-out: Herbicidal action against MATIN
From the text: as §1

Phartoitis purpureum [5] = test: as above; details: dosage 320 g/ha, visual assessment after 3 weeks (Table A)
From the text: as §1

Stellaria media [6] = test: as above; details: 504 h, dosage 320 g/ha, visual assessment after 3 weeks (Table A), read-out: Herbicidal action against STEME
From the text: as §1

Veronica persica [7] = test: as above; details: 504 h, dosage 320 g/ha, visual assessment after 3 weeks (Table A), read-out: Herbicidal action against VERPE
From the text: as §1

Abutilon theophrasti [8] = test: Post-emergence herbicidal action against harmful plants; details: 504 h, dosage 80 g/ha, read-out: Herbicidal action against ABUTH
From the text: (§2) The abbreviations used in the tables below denote: • ABUTH Abutilon theophrasti • AMARE Amaranthus retroflexus • ECHCG Echinochloa crus galli • PHBPU Phartoitis purpureum • STEME Stellaria media • ALOMY Alopecurus myosuroides • AVEFA Avena fatua • MATIN Matricaria inodora • POLCO Fallopia convolvulus • VERPE Veronica persica 1. Pre-emergence Herbicidal Action Against Harmful Plants Seeds of monocotyledonous and dicotyledonous weed and crop plants are placed in sandy loam in wood-fibre pots, covered with soil and cultivated in a greenhouse under good growth conditions. 2 to 3 weeks after sowing, the test plants are treated at the one-leaf stage. The compounds according to the invention, formulated in the form of wettable powders (WP) or as emulsion concentrates (EC), are then sprayed as aqueous suspension or emulsion at a water application rate of 600 to 800 I/ha (converted) with the addition of 0.2% of wetting agent onto the green parts of the plants. After the test plants have been kept in the greenhouse under optimum growth conditions for about 3 weeks, the activity of the preparations is rated visually in comparison to untreated controls (herbicidal activity in percent (%): 100% activity=the plants have died, 0% activity=control plants, —=not tested).

Amaranthus retroflexus [9] = test: as above; details: 504 h, dosage 80 g/ha, visual rating after about 3 weeks (Table D), read-out: Herbicidal action against AMARE
From the text: as §2

Echinochloa crus galli [10] = test: as above; details: 504 h, dosage 80 g/ha, visual rating after about 3 weeks (Table D), read-out: Herbicidal action against ECHCG
From the text: as §2

Fallopia convolvulus = test: as above; details: 504 h, dosage 80 g/ha, read-out: Herbicidal action against POLCO
From the text: as §2

Matricaria inodora [11] = test: as above; details: Tripleurospermum inodorum, 504 h, dosage 80 g/ha, read-out: Herbicidal action against MATIN
From the text: as §2

Phartoitis purpureum [12] = test: as above; details: 504 h, dosage 80 g/ha
From the text: as §2

Stellaria media [13] = test: as above; details: 504 h, dosage 80 g/ha, visual rating after about 3 weeks (Table D), read-out: Herbicidal action against STEME
From the text: as §2

Veronica persica [14] = test: as above; details: 504 h, dosage 80 g/ha, visual rating after about 3 weeks (Table D), read-out: Herbicidal action against VERPE
From the text: as §2

[15] = visual rating after about 3 weeks (Table D)
[16] = visual rating after about 3 weeks (Table D), read-out: Herbicidal action against PHBPU
[17] = visual rating after about 3 weeks (Table E)
[18] = visual rating after about 3 weeks (Table E), read-out: Herbicidal action against PHPBU

Structure (SMILES) | pest or weed control at 320 g/ha (Abutilon theophrasti [1]) [%] | pest or weed control at 320 g/ha (Amaranthus retroflexus [2]) [%] | pest or weed control at 320 g/ha (Echinochloa crus galli [3]) [%] | pest or weed control at 320 g/ha (Matricaria inodora [4]) [%] | Herbicidal action against PHBPU (Phartoitis purpureum [5]) [%] | pest or weed control at 320 g/ha (Stellaria media [6]) [%] | pest or weed control at 320 g/ha (Veronica persica [7]) [%] | pest or weed control at 80 g/ha (Abutilon theophrasti [8]; [15]) [%] | pest or weed control at 80 g/ha (Amaranthus retroflexus [9]) [%] | pest or weed control at 80 g/ha (Echinochloa crus galli [10]) [%] | pest or weed control at 80 g/ha (Fallopia convolvulus; [15]) [%] | pest or weed control at 80 g/ha (Matricaria inodora [11]; [15]) [%] | pest or weed control at 80 g/ha (Phartoitis purpureum [12]; [16]) [%] | pest or weed control at 80 g/ha (Stellaria media [13]) [%] | pest or weed control at 80 g/ha (Veronica persica [14]) [%] | pest or weed control at 80 g/ha (Abutilon theophrasti [8]; [17]) [%] | pest or weed control at 80 g/ha (Fallopia convolvulus; [17]) [%] | pest or weed control at 80 g/ha (Matricaria inodora [11]; [17]) [%] | pest or weed control at 80 g/ha (Phartoitis purpureum [12]; [18]) [%]
CCN(CC)C(=O)COc1c(S(=O)(=O)CC)ccc(C(=O)C2=C(O)CCCC2=O)c1C(F)(F)F [Compound E3] | 100 | 100 | 100 | 100 | 90 | 100 | 100 | 100 | 100 | 100 | 90 | 90 | 90 | 100 | 100 |  |  |  | 
CCN(CC)C(=O)COc1c(S(C)(=O)=O)ccc(C(=O)C2=C(O)CCCC2=O)c1Cl [Compound S2, reference compound] | 40 | 100 | 70 | 60 | 70 | 20 | 100 | 80 | 90 | 30 |  | 70 | 90 | 90 | 90 |  |  |  | 
CN(C)C(=O)COc1c(S(C)(=O)=O)ccc(C(=O)C2=C(O)CCCC2=O)c1C(F)(F)F [Compound E4] | 100 | 100 | 100 | 100 |  | 90 | 100 | 90 | 90 |  | 70 | 90 |  | 100 | 100 |  |  |  | 
CCS(=O)(=O)c1ccc(C(=O)C2=C(O)CCCC2=O)c(Cl)c1OCC(=O)NC [Compound S10, reference compound] |  |  |  |  |  |  |  |  |  |  |  |  |  |  |  | 90 | 80 | 70 | 90
CCN(CC)C(=O)COc1c(S(C)(=O)=O)ccc(C(=O)C2=C(O)CCCC2=O)c1C(F)(F)F [Compound E2] | 100 | 100 | 100 | 100 | 80 | 90 | 100 | 90 | 100 | 90 |  | 100 | 100 | 100 | 100 |  |  |  | 
CCN(CC)C(=O)COc1c(S(=O)(=O)CC)ccc(C(=O)C2=C(O)CCCC2=O)c1Cl [Compound S3, reference compound] | 70 | 80 | 50 | 80 | 40 | 50 | 100 | 90 | 100 | 0 | 40 | 70 | 60 | 90 | 90 |  |  |  | 
CCN(C)C(=O)COc1c(S(=O)(=O)CC)ccc(C(=O)C2=C(O)CCCC2=O)c1Cl [Compound S6, reference compound] | 100 | 100 | 90 | 80 |  | 80 | 90 | 90 | 80 | 20 | 0 | 80 | 80 | 90 | 100 |  |  |  | 
CCN(C)C(=O)COc1c(S(=O)(=O)CC)ccc(C(=O)C2=C(O)CCCC2=O)c1C(F)(F)F [Compound E6] | 100 | 100 | 100 | 100 |  | 100 | 100 | 100 | 90 | 100 | 90 | 100 | 100 | 100 | 100 |  |  |  | 
CN(C)C(=O)COc1c(S(C)(=O)=O)ccc(C(=O)C2=C(O)CCCC2=O)c1Cl [Compound S4, reference compound] | 50 | 100 | 40 | 80 |  | 90 | 100 | 70 | 60 |  | 0 | 70 |  | 90 | 90 |  |  |  | 
CCS(=O)(=O)c1ccc(C(=O)C2=C(O)CCCC2=O)c(C(F)(F)F)c1OCC(=O)NC [Compound E10] |  |  |  |  |  |  |  |  |  |  |  |  |  |  |  | 100 | 100 | 90 | 100
